Reference: patent US10975063B2, “Compound, and production method thereof, and methods of treatment using the compound” (ABIVAX, priority 2009, dated 2021)

Tested on: LMNA aberrant splicing (MutLMNA-luc cell line)
Experiment: Luciferase assay for repression of LMNA aberrant splicing in stable 293 MutLMNA-luc cell line (293FLP LMNA LUC cells #8)
Type: cell-based
Conditions: 48 hours, compared to control untreated MutLMNA-luc cell line, read-out: Increase of luciferase activity
From the text: Advantage has been taken of the luciferase system. The luciferase assay is an extremely sensitive and rapid assay. Linear results are seen over at least eight orders of magnitude of enzyme concentration. Moreover, the luciferase assay is well suited for high-throughput applications. To conduct a Mid-throughput screening (MTS) for compounds repressing LMNA aberrant splicing, we have constructed a plasmid in which exon 11, intron 11 and part of exon 12 of LMNA gene were fused with luciferase cDNA (FIG. 2). Both wild type (WtLMNA-luc)(SEQ ID NO: 1) and mutant (MutLMNA-luc)(SEQ ID NO: 2) substrate harbouring exon 11 mutation have been constructed. In these constructs we have generated a single initiation codon in exon 11 such as correct splicing will lead to luciferase expression, while aberrant splicing will skip the initiation codon and thereby prevent luciferase expression. After transfection in HeLa cells, Luciferase assays (FIG. 2B) and RT-PCR (FIG. 2C) indicate that WtLMNA-luc produces predominantly wild type splicing and large amount of luciferase activity, whereas MutLMNA-luc recapitulate the aberrant splicing profile with reduced luciferase expression (FIGS. 2 B and C, compare Wt and Mut). In order to use this system in MTS, we have generated a stable 293 cell lines containing a single integrated copy of luciferase reporter containing LMNA mutation (MutLMNA-luc cell line) using the flp system from INVITROGEN. This system allows us to perform a MTS for compounds able to enhance luciferase activity.
LMNA sequences (1278 bp of exon 11, intron 11 and 46 bp of […]) were PCR-amplified from either control or patient's cells genomic DNA with specific primer PCR fragments were purified with Concert Rapid PCR purification system (Invitrogen) and subcloned at the BamHI and EcoRI restriction sites of the pSppβm3 S1 plasmid containing the βGlobin cassette (Labourier et al., 1999—Recognition of exonic splicing enhancer sequences by the Drosophila splicing repressor RSF1. Nucleic Acids Res. 27, 2377-2386) to give the βGlo3S1LMNAwt and βGlo3S1LMNAmut constructs. The chimeric (3Glo-LMNA sequences were then inserted into the pcDNA3.1D/V5-His-TOPO vector (Invitrogen) to be used in transfection and in vitro splicing experiments. A single initiation codon ATG was kept in exon 11 of LMNA and LMNA sequences described above were fused at their 3′ end to Fyrefly luciferase cDNA (LMNAlucWT) in order that removal of intron 11 generates a transcript that encode a fusion protein harbouring luciferase activity, whereas usage of the cryptic splice site of mutated exon 11 (LMNAlucMut) will remove the initiation codon preventing luciferase expression. Both sequences were cloned in pcDNA3 Flp-In vector (Invitrogen).
A stable 293 cell line containing a single copy of LMNAlucMut minigene was obtained using the Flp-In system from (Invitrogen) according to manufacture procedure. Several clones were obtained and only one clone was used to screen the whole chemical library (293FLP LMNA LUC cells #8).
In a 96 Well Plate sterile, V-shape one put […] of drug compounds at 50 mM and then add 49.5 μl of 10% DMSO.
One pipets […] of drug at 500 μM and adds 200 μL of DMEM+Hygromycin B. At this stage the concentration of drug compound is 10 μM. One shares out 100 μl in a 96 Well Microplate sterile, flat bottom (further called luciferase plate) and 50 μl in other one (further called toxicity plate).
One washes 293FLP LMNA LUC cells once with D-PBS then adds 1 ml trypsin EDTA. Incubation at 37° C. for 2-3 minutes is proceeded. Then one adds 9 ml DMEM (with 10% FCS, P/S).
Cell concentration is brought at 10^5 cells per ml with DMEM+Hygromycin B to have 10^4 cells per 100 μl.
100 μl of suspension cells is added (at 10^4 cells per 100 μl) so final concentration of compounds is […].
Medium of the wells is gently removed then washed once by adding slowly 150 μl of D-PBS 1×. D-PBS is removed. 40 μl of PLB 1× is added and incubated at RT for 30 minutes. […]

Compound	fold induction at 5 µM
O=C(O)c1ccnc(Nc2ccc3ccccc3n2)c1 [Compound 2, 2-(Quinolin-2-ylamino)-isonicotinic acid]	3.77
Cc1ccnc(Nc2ccc3ccccc3n2)c1 [Compound 3, (4-Methyl-pyridin-2-yl)-quinolin-2-yl-amine]	4.54
c1ccc(Nc2ccc3ccccc3n2)nc1 [Compound 4, Pyridin-2-yl-quinolin-2-yl-amine]	4.43
O=C(O)c1ccnc(Nc2ccc3cccc(Cl)c3n2)c1 [Compound 5, 2-(8-Chloro-quinolin-2-ylamino)-isonicotinic acid]	2.02
N#Cc1ccc(Nc2ccc3ccccc3n2)nc1 [Compound 7, 6-(Quinolin-2-ylamino)-nicotinonitrile]	3.33
FC(F)(F)Oc1ccc(Nc2ccc3ccccc3n2)cc1 [Compound 8, Quinolin-2-yl-(4-trifluoromethoxy-phenyl)-amine]	3.35
c1ccc(Nc2cnc3ccccc3c2)nc1 [Compound 9, Pyridin-2-yl-quinolin-3-yl-amine]	2.47
COc1cccnc1Nc1cnc2ccccc2c1 [Compound 10, (3-Methoxy-pyridin-2-yl)-quinolin-3-yl-amine]	2.01
Cc1ccc(Nc2cnc3ccccc3c2)nc1 [Compound 13, (5-Methyl-pyridin-2-yl)-quinolin-3-yl-amine]	3.46
FC(F)(F)c1ccc(Nc2ccc3ncccc3c2)nc1 [Compound 15, Quinolin-6-yl-(5-trifluoromethyl-pyridin-2-yl)-amine]	2.17
Cc1cccc(Nc2ccc3ncccc3c2)n1 [Compound 16, (6-Methyl-pyridin-2-yl)-quinolin-6-yl-amine]	4.56
Cc1cccc(Nc2ccc3ccccc3n2)n1 [Compound 17, N-(6-methylpyridin-2-yl)quinolin-2-amine]	3.66
Cc1cccc(Nc2ccc3cccc(Cl)c3n2)n1 [Compound 18, 8-chloro-N-(6-methylpyridin-2-yl)quinolin-2-amine]	2.85
Cc1ccnc(Nc2ccc3cc(Cl)ccc3n2)c1 [Compound 25, 6-chloro-N-(4-methylpyridin-2-yl)quinolin-2-amine]	3.49
Cc1cccc(Nc2ccc3cc(Cl)ccc3n2)n1 [Compound 26, 6-chloro-N-(6-methylpyridin-2-yl)quinolin-2-amine]	6.2
O=[N+]([O-])c1cccnc1Nc1ccc2ccccc2n1 [Compound 28, N-(3-nitropyridin-2-yl)quinolin-2-amine]	2.99
Cc1cccnc1Nc1ccc2ccccc2n1 [Compound 31, N-(3-methylpyridin-2-yl)quinolin-2-amine]	5.07
Cc1ccc(Nc2ccc3ccccc3n2)nc1 [Compound 32, N-(5-methylpyridin-2-yl)quinolin-2-amine]	2.96
N#Cc1ccnc(Nc2ccc3ccccc3n2)c1 [Compound 33, 2-(quinolin-2-ylamino)isonicotinonitrile]	2.14
FC(F)(F)c1ccc(Nc2ccc3ccccc3n2)nc1 [Compound 34, N-(5-(trifluoromethyl)pyridin-2-yl)quinolin-2-amine]	4.18
Cc1cccnc1Nc1ccc2cccc(Cl)c2n1 [Compound 35, 8-chloro-N-(3-methylpyridin-2-yl)quinolin-2-amine]	2.74
Cc1ccc(Nc2ccc3cccc(Cl)c3n2)nc1 [Compound 36, 8-chloro-N-(5-methylpyridin-2-yl)quinolin-2-amine]	3.06
COc1cccnc1Nc1ccc2ccccc2n1 [Compound 38, N-(3-methoxypyridin-2-yl)quinolin-2-amine]	5.81

Compound	fold induction at 5 µM
O=[N+]([O-])c1ccc(Nc2ccc3ccccc3n2)nc1 [Compound 39, N-(5-nitropyridin-2-yl)quinolin-2-amine]	4.29
Fc1ccc(Nc2ccc3ccccc3n2)nc1 [Compound 41, N-(5-fluoropyridin-2-yl)quinolin-2-amine]	3.32
FC(F)(F)c1cccc(Nc2ccc3ccccc3n2)n1 [Compound 42, N-(6-(trifluoromethyl)pyridin-2-yl)quinolin-2-amine]	3.87
COC(=O)c1ccc(Nc2ccc3ccccc3n2)nc1 [Compound 59, methyl 6-(quinolin-2-ylamino)nicotinate]	2.49
COC(=O)c1ccc(Nc2nc3ccccc3cc2C)nc1 [Compound 61, methyl 6-[(3-methylquinolin-2-yl)amino]pyridine-3-carboxylate]	2.04
FC(F)(F)Oc1cccc(Nc2ccc3ccccc3n2)c1 [Compound 83, N-[3-(trifluoromethoxy)phenyl]quinolin-2-amine]	2.74
c1ccc(Oc2ccc(Nc3ccc4ccccc4n3)cc2)cc1 [Compound 102, N-(4-phenoxyphenyl)quinolin-2-amine]	2.06
Cc1cccc(Nc2cnc3ccccc3c2)n1 [Compound 105, N-(6-methylpyridin-2-yl)quinolin-3-amine]	3.25
Cc1ccc(Nc2ccc3ncccc3c2)nc1 [Compound 107, N-(5-methylpyridin-2-yl)quinolin-6-amine]	2.2
COc1cccnc1Nc1ccc2ncccc2c1 [Compound 108, N-(3-methoxypyridin-2-yl)quinolin-6-amine]	4.57
c1ccc2nc(Nc3cnccn3)ccc2c1 [Compound 113, N-(pyrazin-2-yl)quinolin-2-amine]	2.28
c1ccc2nc(Nc3ccncc3)ccc2c1 [Compound 120, N-(pyridin-4-yl)quinolin-2-amine]	2.38
COc1ccc(Nc2cnc3ccccc3c2)cc1 [Compound 123, N-(4-methoxyphenyl)quinolin-3-amine]	2.94
Cc1cc(OC(F)(F)F)ccc1Nc1cnc2ccccc2n1 [Compound 125, N-[2-methyl-4-(trifluoromethoxy)phenyl]quinoxalin-2-amine]	2.59
c1cnc(Nc2ccc3ccccc3n2)nc1 [Compound 128, N-(pyrimidin-2-yl)quinolin-2-amine]	3.08
c1ccc(Nc2cnc3ccccc3n2)nc1 [Compound 135, N-(pyridin-2-yl)quinoxalin-2-amine]	4.58
N#Cc1ccc(Nc2cnc3ccccc3n2)nc1 [Compound 137, 6-(quinoxalin-2-ylamino)pyridine-3-carbonitrile]	4.64
Cc1cccc(Nc2cnc3ccccc3n2)n1 [Compound 138, N-(6-methylpyridin-2-yl)quinoxalin-2-amine]	8.22
c1cnc(Nc2cnc3ccccc3n2)nc1 [Compound 142, N-(pyrimidin-2-yl)quinoxalin-2-amine]	4.47
COc1ccnc2cc(Nc3ccccn3)ccc12 [Compound 145, 4-methoxy-N-(pyridin-2-yl)quinolin-7-amine]	3.87
COc1ccnc2cc(Nc3cc(C)ccn3)ccc12 [Compound 146, 4-methoxy-N-(4-methylpyridin-2-yl)quinolin-7-amine]	4.18
Cc1ccnc(Nc2ccc3c(N(C)C)ccnc3c2)c1 [Compound 147, 4-N,4-N-dimethyl-7-N-(4-methylpyridin-2-yl)quinoline-4,7-diamine]	2.94
